Test results as given in patent US5010057A, “Renin-inhibiting peptides having an aminomethyl side chain” (Bayer Aktiengesellschaft, priority 1988, dated 1991).
pIC50: −log10 of the molar value. Starred links: 1 amine or outer side, 2 acyl side, 3 side chain; linkers in the order of their positions; H or OH if unused. Non-standard residues stand in square brackets, D forms with d. Residues, ends and D or L forms follow the SMILES beside them. *: point of attachment. X2 = NCC(C(=O)[*:2])C(O)[C@H](CC1CCCCC1)N[*:1]; X1 = CC(C)C[C@H](N[*:1])C(O)C(CN)C(=O)[*:2]; NHCH2(2-pyridyl) = c1ccc(CN*)nc1; Boc = CC(C)(C)OC(=O)*

Target: T1, endogenous renin from human plasma (Homo sapiens, UniProt P00797)
T1 construct: endogenous renin from human plasma; from tissue; host or cells: pooled human plasma (EDTA)
T1 sequence (P00797 67-406): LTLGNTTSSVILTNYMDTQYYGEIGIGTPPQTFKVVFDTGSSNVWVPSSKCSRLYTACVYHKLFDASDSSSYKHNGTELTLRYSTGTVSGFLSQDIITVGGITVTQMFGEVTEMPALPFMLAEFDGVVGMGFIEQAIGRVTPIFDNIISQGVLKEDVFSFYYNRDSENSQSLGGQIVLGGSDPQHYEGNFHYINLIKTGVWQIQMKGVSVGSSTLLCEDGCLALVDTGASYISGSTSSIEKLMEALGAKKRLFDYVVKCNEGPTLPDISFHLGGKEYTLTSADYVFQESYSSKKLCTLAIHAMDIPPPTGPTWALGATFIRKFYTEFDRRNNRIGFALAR
Assay: In vitro test: inhibition of plasma renin activity (angiotensin I formation, radioimmunoassay)
Type: biochemical
Conditions: pooled human plasma, 37° C., pH 5.6; for pIC50: 50% inhibition of plasma renin activity; for % Inhibition: plasma renin activity, test concentration not given
Experimental: The inhibitory strength of the peptides according to the invention against endogenous renin from human plasma is determined in vitro. Pooled human plasma is obtained with the addition of ethylenediamintetraacetic acid (EDTA) as an anticoagulant and stored at -20° C. The plasma renin activities (PRA) are determined as the rate of formation of angiotensin I from endogenous angiotensinogen and renin by incubation at 37° C. The reaction solution contains 150 μl of plasma, 3 μl of 6.6% strength 8-hydroxyquinoline sulphate solution, 3 μl of 10% strength dimercaprol solution and 144 μl of sodium phosphate buffer (0.2 M; 0.1% EDTA; pH 5.6) with or without the substances according to the invention in various concentrations. The angiotensin I formed per unit of time is determined using a radioimmunoassay (Sorin Biomedica, Italy). The percentage inhibition of the plasma renin activity is calculated by comparison of […]. The concentration range in which the substances claimed herein show a 50% inhibition of plasma renin activity is between 10^-4 to 10^-9 M.

Structure (SMILES): CC[C@H](C)[C@H](NC(=O)C(CN)C(O)[C@H](CC1CCCCC1)NC(=O)[C@H](Cc1c[nH]cn1)NC(=O)[C@H](Cc1ccccc1)NC(=O)OC(C)(C)C)C(=O)OC (some centres unmarked) [Example 82]
- pIC50: 5.85
- % Inhibition: 89%

Structure (SMILES): CC[C@H](C)[C@H](NC(=O)C(CN)C(O)[C@H](Cc1ccccc1)NC(=O)[C@H](Cc1c[nH]cn1)NC(=O)[C@H](Cc1ccccc1)NC(=O)OC(C)(C)C)C(=O)OC (some centres unmarked) [Example 77]
- pIC50: 4.96
- % Inhibition: 96%

Structure (SMILES): CC[C@H](C)[C@H](NC(=O)C(CN)C(O)[C@H](CC1CCCCC1)NC(=O)[C@H](Cc1c[nH]cn1)NC(=O)[C@H](Cc1ccccc1)NC(=O)[C@@H]1CCCN1C(=O)OC(C)(C)C)C(=O)NCc1ccccn1 (some centres unmarked) [Example 85] (Boc-PFH[X2]I-{NHCH2(2-pyridyl)})
- pIC50: 6.62
- % Inhibition: 100%

Structure (SMILES): CC[C@H](C)[C@H](NC(=O)C(CN)C(O)[C@H](CC(C)C)NC(=O)[C@H](Cc1c[nH]cn1)NC(=O)[C@H](Cc1ccccc1)NC(=O)OC(C)(C)C)C(=O)NCc1ccccn1 (some centres unmarked) [Example 96]
- pIC50: 6.00
- % Inhibition: 100%

Structure (SMILES): CC[C@H](C)[C@H](NC(=O)C1CN(Cc2ccccc2)OC1[C@H](CC1CCCCC1)NC(=O)[C@H](Cc1c[nH]cn1)NC(=O)[C@H](Cc1ccccc1)NC(=O)OC(C)(C)C)C(=O)OC (some centres unmarked) [Example 39]
- % Inhibition: 67%

Structure (SMILES): CC(C)CNC(=O)C(CN)C(O)[C@H](CC1CCCCC1)NC(=O)[C@H](Cc1c[nH]cn1)NC(=O)[C@H](Cc1ccccc1)NC(=O)OC(C)(C)C (some centres unmarked) [Example 86]
- pIC50: 5.05
- % Inhibition: 92%

Structure (SMILES): CC[C@H](C)[C@H](NC(=O)C(CN)C(O)[C@H](Cc1ccccc1)NC(=O)[C@H](Cc1c[nH]cn1)NC(=O)[C@H](Cc1ccccc1)NC(=O)OC(C)(C)C)C(=O)NCc1ccccn1 (some centres unmarked) [Example 79]
- pIC50: 5.60
- % Inhibition: 95%

Structure (SMILES): CC[C@H](C)[C@H](NC(=O)C(CN)C(O)[C@H](CC(C)C)NC(=O)[C@H](Cc1c[nH]cn1)NC(=O)[C@H](Cc1ccccc1)NC(=O)OC(C)(C)C)C(=O)OC (some centres unmarked) [Example 94]
- pIC50: 5.43
- % Inhibition: 100%

Structure (SMILES): CC[C@H](C)[C@H](NC(=O)C1CN(Cc2ccccc2)OC1[C@H](Cc1ccccc1)NC(=O)[C@H](Cc1c[nH]cn1)NC(=O)[C@H](Cc1ccccc1)NC(=O)OC(C)(C)C)C(=O)OC (some centres unmarked) [Example 31]
- % Inhibition: 31%

Structure (SMILES): CC[C@H](C)[C@H](NC(=O)C(CN)C(O)[C@H](CC(C)C)NC(=O)[C@H](Cc1c[nH]cn1)NC(=O)[C@H](Cc1ccccc1)NC(=O)[C@@H]1CCCN1C(=O)OC(C)(C)C)C(=O)NCc1ccccn1 (some centres unmarked) [Example 97] (Boc-PFH[X1]I-{NHCH2(2-pyridyl)})
- pIC50: 7.66
- % Inhibition: 100%

Structure (SMILES): CC[C@H](C)[C@H](NC(=O)C(CN)C(O)[C@H](CC1CCCCC1)NC(=O)[C@H](Cc1c[nH]cn1)NC(=O)[C@H](Cc1ccccc1)NC(=O)OC(C)(C)C)C(=O)NCc1ccccn1 (some centres unmarked) [Example 84]
- pIC50: 7.04
- % Inhibition: 100%
